From US20240101576A1, “HETEROCYCLIC INHIBITORS OF EGFR AND/OR HER2, FOR USE IN THE TREATMENT OF CANCER” (Scorpion Therapeutics, Inc., priority 2020, published 2024) come the findings set out here.

SMILES strings stand for the structures.

Common to all, as to type: cell-based
One assay concerns the target T1, EGFR WT (Ba/F3 cells) (Homo sapiens, UniProt P00533).
T1 construct: expressed in transfected cells; host or cells: Ba/F3 (murine pro-B cells), retroviral transduction, puromycin selection, maintained with EGF
Put plainly: Inhibitor activity on EGFR-dependent cell growth (CellTiter-Glo, 72 h), Ba/F3 EGFR WT. The following applies: read-out: BaF3 WT IC50. The method, boiled down: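 This growth assay used Ba/F3 cells that depend on wild-type EGFR and are kept in EGF without IL3. Compounds were made up as 10 mM DMSO stocks and diluted 3-fold over 10 points. 120 nL went onto 600 cells/well. After 72 hours, 40 μL CellTiter-Glo was added and luminescence read on EnVision after 30 min.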

The target in assay [1] is T2, EGFR exon 20 NPG Ins D770_N771 (Ba/F3 cells) (Homo sapiens, UniProt P00533, INS770NPG).
T2 construct: expressed in transfected cells; host or cells: Ba/F3 (murine pro-B cells), retroviral transduction, puromycin selection, IL3-independent pool
T2 sequence (P00533 with tags, fused parts or gaps INS770NPG): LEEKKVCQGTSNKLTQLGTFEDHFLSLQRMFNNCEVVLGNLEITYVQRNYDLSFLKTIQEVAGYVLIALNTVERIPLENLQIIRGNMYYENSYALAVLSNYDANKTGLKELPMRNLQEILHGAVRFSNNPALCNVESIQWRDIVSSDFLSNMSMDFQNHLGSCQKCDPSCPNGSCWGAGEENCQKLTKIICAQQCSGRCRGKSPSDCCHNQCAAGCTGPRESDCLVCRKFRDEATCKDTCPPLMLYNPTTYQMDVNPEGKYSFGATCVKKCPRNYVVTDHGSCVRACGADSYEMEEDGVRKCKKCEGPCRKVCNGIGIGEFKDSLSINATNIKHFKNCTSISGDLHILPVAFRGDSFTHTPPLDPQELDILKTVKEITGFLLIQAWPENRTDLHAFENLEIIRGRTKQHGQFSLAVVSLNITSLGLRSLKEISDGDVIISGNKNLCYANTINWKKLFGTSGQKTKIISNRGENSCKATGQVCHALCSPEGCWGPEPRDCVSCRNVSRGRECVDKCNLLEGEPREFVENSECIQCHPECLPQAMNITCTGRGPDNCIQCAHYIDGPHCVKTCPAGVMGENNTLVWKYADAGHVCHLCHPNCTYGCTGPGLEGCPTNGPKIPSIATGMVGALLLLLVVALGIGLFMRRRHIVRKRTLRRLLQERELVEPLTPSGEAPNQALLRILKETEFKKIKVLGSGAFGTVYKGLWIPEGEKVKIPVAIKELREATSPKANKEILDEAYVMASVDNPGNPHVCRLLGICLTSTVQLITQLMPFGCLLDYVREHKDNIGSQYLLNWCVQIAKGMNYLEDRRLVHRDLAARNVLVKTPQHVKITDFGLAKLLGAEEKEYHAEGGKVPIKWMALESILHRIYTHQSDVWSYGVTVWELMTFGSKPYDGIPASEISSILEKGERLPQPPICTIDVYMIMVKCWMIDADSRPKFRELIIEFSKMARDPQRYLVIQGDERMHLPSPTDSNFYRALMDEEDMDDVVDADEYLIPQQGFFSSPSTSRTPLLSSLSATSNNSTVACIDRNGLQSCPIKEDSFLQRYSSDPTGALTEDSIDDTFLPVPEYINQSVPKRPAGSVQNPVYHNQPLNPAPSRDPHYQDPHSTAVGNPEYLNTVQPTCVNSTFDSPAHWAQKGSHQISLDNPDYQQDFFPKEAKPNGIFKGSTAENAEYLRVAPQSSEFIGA
Put plainly: Inhibitor activity on EGFR-dependent cell growth (CellTiter-Glo, 72 h), Ba/F3 EGFR exon 20 NPG Ins. The following applies: read-out: BaF3 NPG IC50. The method, boiled down:
(§1)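 IC50s derive from a sigmoidal dose–response fit of CellTiter-Glo signal. The signal was normalised between […]-treated cells and cell-free medium. Ba/F3 mutant-EGFR cells, seeded at 400–800/well depending on the line, had 72 h of exposure to a 10-point, 3-fold compound series.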
In general terms: ATP-based viability assays read luminescence as a measure of living cells.

Assay [2] concerns the target T3, EGFR exon 20 ASV Ins V769_D770 (Ba/F3 cells) (Homo sapiens, UniProt P00533, INS769ASV).
T3 construct: expressed in transfected cells; host or cells: Ba/F3 (murine pro-B cells), retroviral transduction, puromycin selection, IL3-independent pool
Put plainly: Inhibitor activity on EGFR-dependent cell growth (CellTiter-Glo, 72 h), Ba/F3 EGFR exon 20 ASV Ins. As to conditions: read-out: BaF3 ASV IC50. A digest of the protocol:
as §1

Assay [3] deals with T4, EGFR exon 20 SVD Ins D770_N771 (Ba/F3 cells) (Homo sapiens, UniProt P00533, INS770SVD).
T4 construct: expressed in transfected cells; host or cells: Ba/F3 (murine pro-B cells), retroviral transduction, puromycin selection, IL3-independent pool
T4 sequence (P00533 with tags, fused parts or gaps INS770SVD): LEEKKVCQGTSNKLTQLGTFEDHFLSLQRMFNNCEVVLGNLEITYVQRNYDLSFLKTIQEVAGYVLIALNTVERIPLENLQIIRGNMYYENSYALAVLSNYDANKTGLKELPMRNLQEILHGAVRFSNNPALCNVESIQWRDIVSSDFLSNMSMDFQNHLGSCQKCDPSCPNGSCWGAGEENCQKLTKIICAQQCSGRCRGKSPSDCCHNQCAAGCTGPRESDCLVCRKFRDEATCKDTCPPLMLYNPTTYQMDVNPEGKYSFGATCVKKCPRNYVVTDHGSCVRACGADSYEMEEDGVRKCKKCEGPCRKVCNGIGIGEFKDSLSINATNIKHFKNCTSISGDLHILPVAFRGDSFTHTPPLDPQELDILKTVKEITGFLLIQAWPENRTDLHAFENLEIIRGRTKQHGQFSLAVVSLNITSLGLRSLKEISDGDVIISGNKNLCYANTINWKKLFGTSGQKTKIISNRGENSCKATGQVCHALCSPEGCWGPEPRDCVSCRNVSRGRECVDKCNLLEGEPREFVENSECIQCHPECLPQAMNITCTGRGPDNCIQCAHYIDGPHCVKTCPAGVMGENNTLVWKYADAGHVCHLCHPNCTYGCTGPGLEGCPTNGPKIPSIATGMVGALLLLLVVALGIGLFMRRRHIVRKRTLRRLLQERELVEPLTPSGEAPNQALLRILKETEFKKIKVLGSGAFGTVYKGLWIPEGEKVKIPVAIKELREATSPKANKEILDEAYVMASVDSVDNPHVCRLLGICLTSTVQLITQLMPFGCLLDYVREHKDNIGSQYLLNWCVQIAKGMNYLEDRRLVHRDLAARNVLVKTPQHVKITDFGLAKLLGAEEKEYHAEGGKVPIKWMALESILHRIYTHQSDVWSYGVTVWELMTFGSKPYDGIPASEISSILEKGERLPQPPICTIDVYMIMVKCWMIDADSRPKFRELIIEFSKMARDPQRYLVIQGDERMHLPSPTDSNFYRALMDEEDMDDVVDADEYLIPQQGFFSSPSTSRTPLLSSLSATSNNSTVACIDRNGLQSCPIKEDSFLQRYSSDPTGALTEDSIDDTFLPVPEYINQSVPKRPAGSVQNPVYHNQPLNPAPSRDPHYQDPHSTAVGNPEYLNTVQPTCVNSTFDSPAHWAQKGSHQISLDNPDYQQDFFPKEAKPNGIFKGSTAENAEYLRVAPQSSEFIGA
Put plainly: Inhibitor activity on EGFR-dependent cell growth (CellTiter-Glo, 72 h), Ba/F3 EGFR exon 20 SVD Ins. As to conditions: read-out: BaF3 SVD IC50. The method, boiled down:
as §1

Assay [4] deals with T5, EGFR exon 20 FQEA Ins A763_V764 (Ba/F3 cells) (Homo sapiens, UniProt P00533, INS763FQEA).
T5 construct: expressed in transfected cells; host or cells: Ba/F3 (murine pro-B cells), retroviral transduction, puromycin selection, IL3-independent pool
Put plainly: Inhibitor activity on EGFR-dependent cell growth (CellTiter-Glo, 72 h), Ba/F3 EGFR exon 20 FQEA Ins. The following applies: read-out: BaF3 FQEA IC50. A digest of the protocol: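 Steps: seed Ba/F3 EGFR-mutant pools (800 cells/well FQEA and exon 19del; 600 L858R/C797S; 400 L858R). Add 120 nL of serially diluted compound and incubate 72 h. Equilibrate to room temperature, add CellTiter-Glo and read after 30 min. Fit IC50.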

For assay [5], the target named is T3, EGFR exon 20 ASV Ins V769_D770 (Ba/F3 cells). Put plainly: Inhibitor activity on EGFR phosphorylation (pEGFR AlphaLISA, 2 h), Ba/F3 EGFR exon 20 ASV Ins. As to conditions: EGFR phosphorylation, AlphaLISA, 2 hours; read-out: ASV IC50 (pEGFR). A digest of the protocol: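 pEGFR AlphaLISA readout after 2 h compound exposure; IC50 from 10-point, 3-fold dilutions (10 mM DMSO stock). Ba/F3 mutant lines grown without IL3, 50K cells/well; CUTO14 12.5K cells/well.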

T1 sequence (P00533 25-1210): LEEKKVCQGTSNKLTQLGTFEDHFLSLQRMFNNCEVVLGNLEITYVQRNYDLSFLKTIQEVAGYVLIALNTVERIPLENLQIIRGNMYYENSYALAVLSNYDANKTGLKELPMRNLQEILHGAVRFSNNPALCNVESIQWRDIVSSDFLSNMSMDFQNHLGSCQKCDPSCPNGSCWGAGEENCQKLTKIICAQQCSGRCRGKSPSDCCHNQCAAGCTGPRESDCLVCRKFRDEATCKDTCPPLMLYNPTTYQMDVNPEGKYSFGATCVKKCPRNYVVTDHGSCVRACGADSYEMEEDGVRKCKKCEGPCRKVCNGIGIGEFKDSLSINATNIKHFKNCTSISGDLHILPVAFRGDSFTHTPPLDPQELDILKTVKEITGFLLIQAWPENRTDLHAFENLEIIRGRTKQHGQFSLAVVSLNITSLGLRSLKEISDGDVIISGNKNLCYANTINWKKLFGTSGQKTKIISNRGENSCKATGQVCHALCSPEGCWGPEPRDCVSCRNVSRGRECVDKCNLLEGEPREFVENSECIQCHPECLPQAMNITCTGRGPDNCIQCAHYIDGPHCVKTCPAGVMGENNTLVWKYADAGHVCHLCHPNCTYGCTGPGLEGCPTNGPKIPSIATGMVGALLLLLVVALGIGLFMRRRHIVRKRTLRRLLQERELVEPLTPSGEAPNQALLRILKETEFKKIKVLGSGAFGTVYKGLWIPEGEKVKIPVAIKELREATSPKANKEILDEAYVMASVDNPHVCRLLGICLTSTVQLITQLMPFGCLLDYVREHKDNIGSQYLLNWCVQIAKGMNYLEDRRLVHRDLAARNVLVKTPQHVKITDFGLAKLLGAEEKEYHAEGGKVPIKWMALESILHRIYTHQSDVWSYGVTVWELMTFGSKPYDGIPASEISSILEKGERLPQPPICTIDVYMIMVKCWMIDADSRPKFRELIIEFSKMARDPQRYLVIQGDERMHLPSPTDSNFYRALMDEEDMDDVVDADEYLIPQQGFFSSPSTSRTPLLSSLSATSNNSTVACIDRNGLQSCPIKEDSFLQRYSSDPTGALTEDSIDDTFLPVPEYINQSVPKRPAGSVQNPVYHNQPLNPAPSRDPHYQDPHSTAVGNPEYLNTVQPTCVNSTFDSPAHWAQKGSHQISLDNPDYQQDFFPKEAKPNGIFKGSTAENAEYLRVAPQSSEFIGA
T3 sequence (P00533 with tags, fused parts or gaps INS769ASV): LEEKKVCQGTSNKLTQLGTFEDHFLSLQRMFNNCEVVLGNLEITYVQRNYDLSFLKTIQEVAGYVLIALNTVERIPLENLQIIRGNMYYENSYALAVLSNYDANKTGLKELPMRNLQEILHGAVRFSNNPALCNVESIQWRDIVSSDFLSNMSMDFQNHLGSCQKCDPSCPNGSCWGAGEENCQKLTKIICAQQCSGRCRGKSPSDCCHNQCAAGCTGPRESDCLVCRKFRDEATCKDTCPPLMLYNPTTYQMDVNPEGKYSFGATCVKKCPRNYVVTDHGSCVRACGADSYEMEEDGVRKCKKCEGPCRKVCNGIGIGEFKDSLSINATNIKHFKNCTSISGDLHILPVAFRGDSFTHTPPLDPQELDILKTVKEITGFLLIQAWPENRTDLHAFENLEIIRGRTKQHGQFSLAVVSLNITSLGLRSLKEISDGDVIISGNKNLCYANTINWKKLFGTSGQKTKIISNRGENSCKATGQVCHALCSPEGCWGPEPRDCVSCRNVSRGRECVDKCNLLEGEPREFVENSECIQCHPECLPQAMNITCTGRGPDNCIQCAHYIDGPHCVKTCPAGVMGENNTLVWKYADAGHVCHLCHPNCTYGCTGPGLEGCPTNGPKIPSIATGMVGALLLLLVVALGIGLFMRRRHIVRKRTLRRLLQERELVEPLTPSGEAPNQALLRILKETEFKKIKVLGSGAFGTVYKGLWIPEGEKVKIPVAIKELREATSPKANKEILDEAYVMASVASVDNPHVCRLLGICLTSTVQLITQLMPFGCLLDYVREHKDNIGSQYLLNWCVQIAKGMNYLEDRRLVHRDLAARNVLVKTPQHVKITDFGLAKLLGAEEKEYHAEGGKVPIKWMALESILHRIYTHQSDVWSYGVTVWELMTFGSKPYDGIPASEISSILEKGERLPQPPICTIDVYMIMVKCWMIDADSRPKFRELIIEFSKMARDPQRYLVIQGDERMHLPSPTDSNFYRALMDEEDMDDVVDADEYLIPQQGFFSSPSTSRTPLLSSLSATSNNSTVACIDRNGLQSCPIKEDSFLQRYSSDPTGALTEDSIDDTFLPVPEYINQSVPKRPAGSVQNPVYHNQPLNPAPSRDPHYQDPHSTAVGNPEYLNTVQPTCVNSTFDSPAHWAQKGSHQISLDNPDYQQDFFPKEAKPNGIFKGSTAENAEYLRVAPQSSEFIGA

The term IC50 denotes the concentration needed to halve the response being measured. On to `COc1c(F)cccc1Nc1c(-c2ccnc3ccc(NC(C)(C)C)nc23)[nH]c2c1C(=O)NCC2` [Compound 694, 2-[6-(tert-butylamino)-1,5-naphthyridin-4-yl]-3-[(3-fluoro-2-methoxyphenyl)amino]-1H,5H,6H,7H-pyrrolo[3,2-c]pyridin-4-one], for which the half-inhibitory concentration (IC50) (at EGFR WT (Ba/F3 cells); in assay [1]; in assay [2]; in assay [3]; in assay [4]; in assay [5]) was less than 100 nM each time.
In the case of `COc1c(F)cccc1Nc1c(-c2ccnc3ccc(OC4CC4)nc23)[nH]c2c1C(=O)NCC2` [Compound 696, 2-(6-cyclopropoxy-1,5-naphthyridin-4-yl)-3-[(3-fluoro-2-methoxyphenyl)amino]-1H,5H,6H,7H-pyrrolo[3,2-c]pyridin-4-one; trifluoroacetic acid], the IC50 (at EGFR WT (Ba/F3 cells); in assay [1]; in assay [2]; in assay [3]; in assay [4]; in assay [5]) was less than 100 nM each time.
`COc1c(F)cccc1Nc1c(-c2ccnc3ccc(N(C)C)nc23)[nH]c2c1C(=O)NCC2` [Compound 697, 2-[6-(dimethylamino)-1,5-naphthyridin-4-yl]-3-[(3-fluoro-2-methoxyphenyl)amino]-1H,5H,6H,7H-pyrrolo[3,2-c]pyridin-4-one]: the IC50 (at EGFR WT (Ba/F3 cells); in assay [1]; in assay [2]; in assay [3]; in assay [4]; in assay [5]) was less than 100 nM in each case.
Consider `COc1c(Cl)cccc1Nc1c(-c2ccnc(NCC(F)(F)F)n2)[nH]c2c1C(=O)NCC2` [Compound 701, 3-[(3-chloro-2-methoxyphenyl)amino]-2-[2-[(2,2,2-trifluoroethyl)amino]pyrimidin-4-yl]-1H,5H,6H,7H-pyrrolo[3,2-c]pyridin-4-one], for which the IC50 on EGFR WT (Ba/F3 cells) was more than 1000 nM; in assay [1] it was more than 1000 nM; in assay [2], more than 1000 nM; in assay [3] it was more than 1000 nM; in assay [4] it was more than 1000 nM; in assay [5], 100 to 1000 nM.
In the case of `COc1c(Cl)cccc1Nc1c(-c2ccnc(NCC(F)F)n2)[nH]c2c1C(=O)NCC2` [Compound 702, 3-[(3-chloro-2-methoxyphenyl)amino]-2-[2-[(2,2-difluoroethyl)amino]pyrimidin-4-yl]-1H,5H,6H,7H-pyrrolo[3,2-c]pyridin-4-one], the IC50 at EGFR WT (Ba/F3 cells) was more than 1000 nM; in assay [1] it was 100 to 1000 nM; in assay [2], 100 to 1000 nM; in assay [3] it was 100 to 1000 nM; in assay [4], 100 to 1000 nM; in assay [5], 100 to 1000 nM.
With `COc1c(Cl)cccc1Nc1c(-c2ccnc(NCCN(C)C)n2)[nH]c2c1C(=O)NCC2` [Compound 707, 3-((3-chloro-2-methoxyphenyl)amino)-2-(2-((2-(dimethylamino)ethyl)amino)pyrimidin-4-yl)-1,5,6,7-tetrahydro-4H-pyrrolo[3,2-c]pyridin-4-one], the IC50 (on EGFR WT (Ba/F3 cells); in assay [1]; in assay [2]; in assay [3]; in assay [4]; in assay [5]) was more than 1000 nM throughout.
On to `COc1c(Cl)cccc1Nc1c(-c2ccnc(NC(=O)c3cccc(F)c3)n2)[nH]c2c1C(=O)NCC2` [compound 102], for which the IC50 on EGFR WT (Ba/F3 cells) is more than 1000 nM; in assay [1], 100 to 1000 nM; in assay [2], 100 to 1000 nM; in assay [3], 100 to 1000 nM; in assay [4], 100 to 1000 nM; in assay [5] it was less than 100 nM.
As for `COc1c(Cl)cccc1Nc1c(-c2ccnc(NC3CC3)n2)[nH]c2c1C(=O)NCC2` [compound 112], the IC50 at EGFR WT (Ba/F3 cells) was more than 1000 nM; in assay [1], more than 1000 nM; in assay [2], 100 to 1000 nM; in assay [3] it was 100 to 1000 nM; in assay [4], 100 to 1000 nM; in assay [5], less than 100 nM.
In the case of `Nc1nccc(-c2[nH]c3c(c2Nc2cccc(C(F)(F)F)c2)C(=O)NCC3)n1` [compound 199], the IC50 at EGFR WT (Ba/F3 cells) is more than 1000 nM; in assay [1], 100 to 1000 nM; in assay [2], more than 1000 nM; in assay [3] it was more than 1000 nM; in assay [4], 100 to 1000 nM; in assay [5], 100 to 1000 nM.
As for `COc1c(Cl)cccc1Nc1c(-c2ccnc3[nH]ccc23)[nH]c2c1C(=O)NCC2` [compound 218], the IC50 at EGFR WT (Ba/F3 cells) is more than 1000 nM; in assay [1] it was more than 1000 nM; in assay [2], 100 to 1000 nM; in assay [3], 100 to 1000 nM; in assay [4], 100 to 1000 nM; in assay [5], less than 100 nM.
Turning to `COc1nn(C)cc1Nc1nccc(-c2[nH]c3c(c2Nc2cccc(Cl)c2OC)C(=O)NCC3)n1` [compound 219], the IC50 (on EGFR WT (Ba/F3 cells); in assay [1]; in assay [2]; in assay [3]; in assay [4]; in assay [5]) was less than 100 nM throughout.
Regarding `COc1c(Cl)cccc1Nc1c(-c2ccnc(NC(C)C)n2)[nH]c2c1C(=O)NCC2` [compound 225], the half-inhibitory concentration (IC50) on EGFR WT (Ba/F3 cells) was more than 1000 nM; in assay [1] it was 100 to 1000 nM; in assay [2], 100 to 1000 nM; in assay [3], 100 to 1000 nM; in assay [4] it was more than 1000 nM; in assay [5], 100 to 1000 nM.
For `COc1c(Cl)cccc1Nc1c(-c2ncnc3[nH]ccc23)[nH]c2c1C(=O)NCC2` [compound 289], the 50% inhibitory concentration (IC50) (on EGFR WT (Ba/F3 cells); in assay [1]; in assay [2]; in assay [3]; in assay [4]; in assay [5]) was more than 1000 nM in each case.
Consider `COc1c(Cl)cccc1Nc1c(-c2ccnc3c2OCCN3)[nH]c2c1C(=O)NCC2` [compound 292], for which the half-maximal inhibitory concentration (IC50) is more than 1000 nM at EGFR WT (Ba/F3 cells); 100 to 1000 nM in assay [1]; 100 to 1000 nM in assay [2]; 100 to 1000 nM in assay [3]; 100 to 1000 nM in assay [4]; less than 100 nM in assay [5].
On to `COc1c(Cl)cccc1Nc1c(-c2nc(N)ncc2F)[nH]c2c1C(=O)NCC2` [compound 295], for which the half-inhibitory concentration (IC50) on EGFR WT (Ba/F3 cells) is more than 1000 nM; in assay [1], more than 1000 nM; in assay [2] it was 100 to 1000 nM; in assay [3] it was more than 1000 nM; in assay [4], 100 to 1000 nM; in assay [5] it was 100 to 1000 nM.
For `COc1c(Cl)cccc1Nc1c(-c2ccnc(NCCF)n2)[nH]c2c1C(=O)NCC2` [compound 710, 3-[(3-chloro-2-methoxyphenyl)amino]-2-[2-[(2-fluoroethyl)amino]pyrimidin-4-yl]-1H,5H,6H,7H-pyrrolo[3,2-c]pyridin-4-one], the half-inhibitory concentration (IC50) on EGFR WT (Ba/F3 cells) was more than 1000 nM; in assay [1] it was 100 to 1000 nM; in assay [2], 100 to 1000 nM; in assay [3], 100 to 1000 nM; in assay [4] it was 100 to 1000 nM; in assay [5], less than 100 nM.
Consider `COc1c(Cl)cccc1Nc1c(-c2ccnc(NC[C@H]3CCCO3)n2)[nH]c2c1C(=O)NCC2` [compound 721, (R)-3-((3-chloro-2-methoxyphenyl)amino)-2-(2-(((tetrahydrofuran-2-yl)methyl)amino)pyrimidin-4-yl)-1,5,6,7-tetrahydro-4H-pyrrolo[3,2-c]pyridin-4-one], for which the half-maximal inhibitory concentration (IC50) at EGFR WT (Ba/F3 cells) is more than 1000 nM; in assay [1] it was more than 1000 nM; in assay [2], more than 1000 nM; in assay [3], more than 1000 nM; in assay [4], more than 1000 nM; in assay [5], 100 to 1000 nM.
On to `COc1c(Cl)cccc1Nc1c(-c2ccnc(NC[C@@H]3CCCO3)n2)[nH]c2c1C(=O)NCC2` [compound 722, 3-[(3-chloro-2-methoxyphenyl)amino]-2-(2-[[(2S)-oxolan-2-ylmethyl]amino]pyrimidin-4-yl)-1H,5H,6H,7H-pyrrolo[3,2-c]pyridin-4-one], for which the IC50 on EGFR WT (Ba/F3 cells) was more than 1000 nM; in assay [1], more than 1000 nM; in assay [2], more than 1000 nM; in assay [3], more than 1000 nM; in assay [4] it was more than 1000 nM; in assay [5], 100 to 1000 nM.
